Here are results for 39 compounds from patent US20230391739A1, “ARYL DERIVATIVES FOR TREATING TRPM3 MEDIATED DISORDERS” (Katholieke Universiteit Leuven, priority 2020, published 2023).

pIC50: −log10 of the molar value.

T1 sequence (J9SQF3 1-1709 isoform J9SQF3-12): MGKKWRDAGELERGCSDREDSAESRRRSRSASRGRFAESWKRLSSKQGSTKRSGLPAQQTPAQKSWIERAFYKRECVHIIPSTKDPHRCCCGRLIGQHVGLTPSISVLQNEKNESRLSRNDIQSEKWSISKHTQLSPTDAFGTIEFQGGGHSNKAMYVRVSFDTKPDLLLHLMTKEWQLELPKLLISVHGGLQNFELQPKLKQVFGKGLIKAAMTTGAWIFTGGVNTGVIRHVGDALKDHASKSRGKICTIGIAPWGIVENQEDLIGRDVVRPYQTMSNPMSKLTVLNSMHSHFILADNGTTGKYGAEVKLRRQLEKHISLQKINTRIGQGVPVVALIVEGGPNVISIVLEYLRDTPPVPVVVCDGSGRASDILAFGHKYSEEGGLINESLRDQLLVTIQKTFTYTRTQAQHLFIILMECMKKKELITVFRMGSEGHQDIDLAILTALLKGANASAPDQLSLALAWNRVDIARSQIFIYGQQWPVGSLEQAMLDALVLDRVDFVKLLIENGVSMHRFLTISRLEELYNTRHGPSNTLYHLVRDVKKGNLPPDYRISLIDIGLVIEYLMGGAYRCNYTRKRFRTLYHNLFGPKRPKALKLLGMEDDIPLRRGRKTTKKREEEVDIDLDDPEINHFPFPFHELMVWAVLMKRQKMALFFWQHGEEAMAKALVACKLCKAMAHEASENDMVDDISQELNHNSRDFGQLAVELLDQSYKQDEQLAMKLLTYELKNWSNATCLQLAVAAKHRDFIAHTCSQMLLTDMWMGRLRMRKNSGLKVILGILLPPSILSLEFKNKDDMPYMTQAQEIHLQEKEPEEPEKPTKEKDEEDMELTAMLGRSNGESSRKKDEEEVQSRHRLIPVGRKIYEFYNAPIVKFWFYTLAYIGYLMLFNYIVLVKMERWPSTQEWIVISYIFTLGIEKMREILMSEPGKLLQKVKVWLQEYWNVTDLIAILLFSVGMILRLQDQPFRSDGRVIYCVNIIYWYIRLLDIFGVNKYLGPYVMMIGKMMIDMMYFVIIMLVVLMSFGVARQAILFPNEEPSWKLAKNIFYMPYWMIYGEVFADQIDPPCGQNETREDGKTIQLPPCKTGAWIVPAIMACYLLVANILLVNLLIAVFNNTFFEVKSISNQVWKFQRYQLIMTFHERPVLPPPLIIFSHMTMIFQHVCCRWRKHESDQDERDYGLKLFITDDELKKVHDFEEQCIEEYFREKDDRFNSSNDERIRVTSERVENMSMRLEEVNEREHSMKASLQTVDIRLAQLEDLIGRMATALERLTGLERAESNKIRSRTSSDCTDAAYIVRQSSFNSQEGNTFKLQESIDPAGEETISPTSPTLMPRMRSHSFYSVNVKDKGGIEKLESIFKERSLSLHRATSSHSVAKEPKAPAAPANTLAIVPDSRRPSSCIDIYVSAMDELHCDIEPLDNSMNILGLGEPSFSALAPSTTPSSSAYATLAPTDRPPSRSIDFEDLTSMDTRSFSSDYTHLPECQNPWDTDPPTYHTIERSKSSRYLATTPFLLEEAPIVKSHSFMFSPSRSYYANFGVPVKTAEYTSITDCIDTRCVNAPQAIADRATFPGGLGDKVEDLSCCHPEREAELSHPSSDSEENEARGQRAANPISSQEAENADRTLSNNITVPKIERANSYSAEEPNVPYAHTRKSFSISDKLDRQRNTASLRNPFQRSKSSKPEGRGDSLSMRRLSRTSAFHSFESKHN

The experiment concerns the target T1, mouse TRPM3α2 (mTRPM3) ion channel (Mus musculus, UniProt J9SQF3).
T1 construct: expressed in transfected cells; host or cells: flip-in HEK293
Put plainly: TRPM3 ion channel driven Ca2+ uptake, Fluo-4 AM assay, PS-stimulated (mTRPM3). The conditions noted are these: TRPM3 overexpressing flip-in HEK293 cells stimulated with Pregnenolone sulfate (PS) 50 μM, activity ranges A, B, C. In kind it is cell-based. The method, boiled down: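 Ca²⁺ influx through mouse TRPM3α2, opened by 50 μM pregnenolone sulfate, was tracked with Fluo-4 AM in stably transfected HEK293 cells read directly after seeding onto pre-dispensed compound.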
With `Cc1oc2ccc(OC(C)c3ccccc3)cc2c1C(=O)O` (stereo not drawn) [Cpd 004, 2-methyl-5-(1-phenylethoxy)benzofuran-3-carboxylic acid], the pIC50 (usually −log10 of the IC50, conventionally taken in molar units) was 4.70 to 6.00.

Compound `Cc1oc2ccc(OCc3ccccc3)cc2c1C(=O)NS(=O)(=O)C1CC1` [Cpd 133, 5-(benzyloxy)-N-(cyclopropylsulfonyl)-2-methylbenzofuran-3-carboxamide] gave a pIC50 greater than 6.00.

With `Cc1oc2ccc(OCc3ccccc3)cc2c1C(=O)N1CCN(c2ccccn2)CC1` [Cpd 214, (5-(benzyloxy)-2-methylbenzofuran-3-yl)(4-(pyridin-2-yl)piperazin-1-yl)methanone], the negative logarithm of the IC50 (pIC50) is 4.70 to 6.00.

Consider `Cc1oc2ccc(OCc3ccccc3)cc2c1C(=O)NC1CCC(N(C)C)CC1` (stereo not drawn) [Cpd 186, 5-(benzyloxy)-N-(4-(dimethylamino)cyclohexyl)-2-methylbenzofuran-3-carboxamide], for which the pIC50 was greater than 6.00.

As to `Cc1oc2ccc(OCc3ccccc3F)cc2c1C(=O)O` [Cpd 008, 5-((2-fluorobenzyl)oxy)-2-methylbenzofuran-3-carboxylic acid], the pIC50 is greater than 6.00.

The compound `Cc1nc(C)n(CCNC(=O)c2c(C)oc3ccc(OCc4ccccc4)cc23)n1` [Cpd 179, 5-(benzyloxy)-N-(2-(3,5-dimethyl-1H-1,2,4-triazol-1-yl)ethyl)-2-methylbenzofuran-3-carboxamide] had a pIC50 of 4.70 to 6.00.

Turning to `Cc1oc2ccc(OCc3ccccc3)cc2c1C(=O)NC1CCNC(C)C1` (racemic) [Cpd 115, rac-5-(benzyloxy)-2-methyl-N-(cis-2-methylpiperidin-4-yl)benzofuran-3-carboxamide], the pIC50 was greater than 6.00.

In turn, `Cc1oc2ccc(OCc3ccccc3)cc2c1C(=O)N[C@@H]1CCCN(C2COC2)C1` [Cpd 207, (R)-5-(benzyloxy)-2-methyl-N-(1-(oxetan-3-yl)piperidin-3-yl)benzofuran-3-carboxamide] had a pIC50 greater than 6.00.

On to `Cc1oc2ccc(OCc3ccccc3F)cc2c1C(=O)NC1CCNCC1(F)F` (stereo not drawn) [Cpd 201, N-(3,3-difluoropiperidin-4-yl)-5-((2-fluorobenzyl)oxy)-2-methylbenzofuran-3-carboxamide], for which the pIC50 was greater than 6.00.

`Cc1oc2ccc(OCc3ccccc3C(F)(F)F)cc2c1C(=O)N[C@H]1CCNC1` [Cpd 203, (S)-2-methyl-N-(pyrrolidin-3-yl)-5-((2-(trifluoromethyl)benzyl)oxy)benzofuran-3-carboxamide] showed a pIC50 greater than 6.00.

As for `Cc1oc2ccc(OCc3ccccc3)cc2c1C(=O)NC1CNCC1F` (racemic) [Cpd 094, rac-5-(benzyloxy)-N-(cis-4-fluoropyrrolidin-3-yl)-2-methylbenzofuran-3-carboxamide], the negative logarithm of the IC50 (pIC50) was greater than 6.00.

As to `Cc1oc2ccc(OCc3ccccc3F)cc2c1C(=O)NC1CCN(CCO)C1=O` (single isomer, unassigned) [Cpd 311-En 1, 5-((2-Fluorobenzyl)oxy)-N-(1-(2-hydroxyethyl)-2-oxopyrrolidin-3-yl)-2-methylbenzofuran-3-carboxamide], the negative-log IC50 (pIC50) was greater than 6.00.

In turn, `Cc1oc2ccc(OCc3ccccc3)cc2c1C(=O)O` [Cpd 002, 5-(benzyloxy)-2-methylbenzofuran-3-carboxylic acid] gave a pIC50 greater than 6.00.

`Cc1oc2ccc(OCc3cccc(C(F)(F)F)c3)cc2c1C(=O)NC1CCN(C)CC1` [Cpd 232, 2-methyl-N-(1-methylpiperidin-4-yl)-5-((3-(trifluoromethyl)benzyl)oxy)benzofuran-3-carboxamide]: the negative logarithm of the IC50 (pIC50) was 4.70 to 6.00.

In the case of `Cc1oc2ccc(OCc3ccccc3)c(C)c2c1C(=O)NC1CNCC1(F)F` (single isomer, unassigned) [Cpd 299-En 2, 5-(benzyloxy)-N-(4,4-difluoropyrrolidin-3-yl)-2,4-dimethylbenzofuran-3-carboxamide], the pIC50 was greater than 6.00.

As to `Cc1oc2ccc(OCc3ccccc3)cc2c1C(=O)NCCN1CCOCC1` [Cpd 165, 5-(benzyloxy)-2-methyl-N-(2-morpholinoethyl)benzofuran-3-carboxamide], the pIC50 is 4.70 to 6.00.

In turn, `Cc1oc2ccc(OCc3cccc(F)c3F)cc2c1C(=O)N[C@H]1CCNC1` [Cpd 135, (S)-5-((2,3-difluorobenzyl)oxy)-2-methyl-N-(pyrrolidin-3-yl)benzofuran-3-carboxamide] gave a negative logarithm of the IC50 (pIC50) greater than 6.00.

Take `Cc1oc2ccc(OC3CCc4ccccc43)cc2c1C(=O)O` (stereo not drawn) [Cpd 011, 5-((2,3-dihydro-1H-inden-1-yl)oxy)-2-methylbenzofuran-3-carboxylic acid]: the negative-log IC50 (pIC50) was 4.70 to 6.00.

In turn, `Cc1ccccc1COc1ccc2oc(C)c(C(=O)N[C@H]3CCNC3)c2c1` [Cpd 083, (S)-2-methyl-5-((2-methylbenzyl)oxy)-N-(pyrrolidin-3-yl)benzofuran-3-carboxamide] had a pIC50 greater than 6.00.

The compound `Cc1oc2ccc(OCc3ccccc3)cc2c1C(=O)NC1(CO)CCOCC1` [Cpd 167, 5-(benzyloxy)-N-(4-(hydroxymethyl)tetrahydro-2H-pyran-4-yl)-2-methylbenzofuran-3-carboxamide] gave a negative-log IC50 (pIC50) greater than 6.00.

Regarding `Cc1oc2ccc(OCc3ccccc3)cc2c1C(=O)NC1(CO)COC1` [Cpd 092, 5-(benzyloxy)-N-(3-(hydroxymethyl)oxetan-3-yl)-2-methylbenzofuran-3-carboxamide], the pIC50 was greater than 6.00.

On to `Cc1oc2ccc(OCc3ccccc3)cc2c1C(=O)NC[C@H]1CCCO1` [Cpd 089, (R)-5-(benzyloxy)-2-methyl-N-((tetrahydrofuran-2-yl)methyl)benzofuran-3-carboxamide], for which the pIC50 was 4.70 to 6.00.

With `Cc1oc2c(C)cc(OCc3ccccc3)cc2c1C(=O)NC1CNCC1(F)F` (single isomer, unassigned) [Cpd 307-En 2, 5-(benzyloxy)-N-(4,4-difluoropyrrolidin-3-yl)-2,7-dimethylbenzofuran-3-carboxamide], the pIC50 was less than 4.70.

As to `Cc1oc2ccc(OCc3ccc(CN)cc3)cc2c1C(=O)NC1CCN(C)CC1` [Cpd 190, 5-((4-(aminomethyl)benzyl)oxy)-2-methyl-N-(1-methylpiperidin-4-yl)benzofuran-3-carboxamide], the pIC50 was less than 4.70.

`COc1cccc(COc2ccc3oc(C)c(C(=O)O)c3c2)c1` [Cpd 012, 5-((3-methoxybenzyl)oxy)-2-methylbenzofuran-3-carboxylic acid] had a negative-log IC50 (pIC50) greater than 6.00.

Compound `Cc1oc2ccc(OC(C)c3ccccc3)cc2c1C(=O)NC1(C(N)=O)CCC1` (single isomer, unassigned) [Cpd 343-En 2, N-(1-carbamoylcyclobutyl)-2-methyl-5-(1-phenylethoxy)benzofuran-3-carboxamide] showed a pIC50 greater than 6.00.

In the case of `Cc1oc2ccc(OCc3ccccc3OCCN(C)C)cc2c1C(=O)NC1CCN(C)CC1` [Cpd 250, 5-((2-(2-(dimethylamino)ethoxy)benzyl)oxy)-2-methyl-N-(1-methylpiperidin-4-yl)benzofuran-3-carboxamide], the pIC50 is less than 4.70.

As for `Cc1oc2ccc(OCc3cccc(F)c3)cc2c1C(=O)N[C@H]1CCNC1` [Cpd 096, (S)-5-((3-fluorobenzyl)oxy)-2-methyl-N-(pyrrolidin-3-yl)benzofuran-3-carboxamide], the pIC50 is greater than 6.00.

Turning to `Cc1oc2ccc(OCc3ccccc3)cc2c1C(=O)NC1CCCN(C(=O)OC(C)(C)C)C1` (stereo not drawn) [Cpd 247, tert-butyl 3-(5-(benzyloxy)-2-methylbenzofuran-3-carboxamido)piperidine-1-carboxylate], the negative-log IC50 (pIC50) was less than 4.70.

With `Cc1oc2c(Cl)cc(OCc3ccccc3)cc2c1C(=O)NC1CNCC1(F)F` (single isomer, unassigned) [Cpd 304-En 1, 5-(benzyloxy)-7-chloro-N-(4,4-difluoropyrrolidin-3-yl)-2-methylbenzofuran-3-carboxamide], the negative-log IC50 (pIC50) is 4.70 to 6.00.

As for `Cc1oc2ccc(OCc3ccccc3)cc2c1C(=O)NC[C@@H]1CCCO1` [Cpd 090, (S)-5-(benzyloxy)-2-methyl-N-((tetrahydrofuran-2-yl)methyl)benzofuran-3-carboxamide], the pIC50 is greater than 6.00.

`Cc1oc2ccc(OCc3ccccc3)cc2c1C(=O)N1CCC(C)CC1` [Cpd 067, (5-(benzyloxy)-2-methylbenzofuran-3-yl)(4-methylpiperidin-1-yl)methanone] had a pIC50 of 4.70 to 6.00.

The compound `Cc1oc2ccc(OCc3ccccc3F)cc2c1C(=O)NC(CO)C(N)=O` (single isomer, unassigned) [Cpd 314-En 1] had a negative logarithm of the IC50 (pIC50) greater than 6.00.

Take `Cc1oc2ccc(OCc3ccccc3)cc2c1C(=O)Nc1ccncc1` [Cpd 060, 5-(benzyloxy)-2-methyl-N-(pyridin-4-yl)benzofuran-3-carboxamide]: the negative logarithm of the IC50 (pIC50) was greater than 6.00.

In turn, `Cc1oc2ccc(OCc3ccccc3)cc2c1C(=O)N[C@@H]1CCCNC1=O` [Cpd 107, (R)-5-(benzyloxy)-2-methyl-N-(2-oxopiperidin-3-yl)benzofuran-3-carboxamide] had a pIC50 greater than 6.00.

In the case of `COC1CCC(NC(=O)c2c(C)oc3ccc(OCc4ccccc4)cc23)CC1` (stereo not drawn) [Cpd 159, 5-(benzyloxy)-N-(4-methoxycyclohexyl)-2-methylbenzofuran-3-carboxamide], the negative-log IC50 (pIC50) is 4.70 to 6.00.

As to `Cc1oc2ccc(OCc3ccc(C(F)(F)F)cc3)cc2c1C(=O)O` [Cpd 026, 2-methyl-5-((4-(trifluoromethyl)benzyl)oxy)benzofuran-3-carboxylic acid], the negative-log IC50 (pIC50) was less than 4.70.

`Cc1cc2oc(C)c(C(=O)NC3CNCC3(F)F)c2cc1OCc1ccccc1` (single isomer, unassigned) [Cpd 303-En 2, 5-(benzyloxy)-N-(4,4-difluoropyrrolidin-3-yl)-2,6-dimethylbenzofuran-3-carboxamide] gave a negative-log IC50 (pIC50) of less than 4.70.

Regarding `COc1ccccc1COc1ccc2oc(C)c(C(=O)NC3CCNC3=O)c2c1` (stereo not drawn) [Cpd 164, 5-((2-methoxybenzyl)oxy)-2-methyl-N-(2-oxopyrrolidin-3-yl)benzofuran-3-carboxamide], the negative logarithm of the IC50 (pIC50) is greater than 6.00.
